Laboratory results published in the supplement of paper PMC4862054.

Assays:
Settings in all cases: incubation time: 72 h
MDA-MB-468 [1] = assay: normalised response (% of control), CellTox Green; higher = less cell death (100 = DMSO, 0 = benzethonium chloride kill control)
Summary of the method: (§1)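 Breast cancer cell lines were exposed for 72 h in 384-well plates to compound at 5 concentrations, 10-fold apart, covering a 10,000-fold range fixed for each compound. Plates were read for CellTox Green fluorescence and CellTiter-Glo luminescence and normalised to 0.1 % DMSO (100) and a positive kill control (0). Each value is the normalised signal at one concentration of the series.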

DU-4475 = assay: as above
Summary of the method: as §1

MCF-10A [2] = assay: as above
Summary of the method: as §1

CAL-120 [3] = assay: as above
Summary of the method: as §1

MDA-MB-468 [4] = assay: normalised response (% of control), CellTiter-Glo; higher = more viable cells (100 = DMSO, 0 = benzethonium chloride kill control)
Summary of the method: as §1

HCC1937 = assay: as above
Summary of the method: as §1

CAL-51 = assay: as above
Summary of the method: as §1

HDQ-P1 = assay: as above
Summary of the method: as §1

BT-549 = assay: as above
Summary of the method: as §1

CAL-148 = assay: as above
Summary of the method: as §1

MDA-MB-453 = assay: as above
Summary of the method: as §1

Hs578T = assay: as above
Summary of the method: as §1

MDA-MB-231 = assay: as above
Summary of the method: as §1

HCC1599 = assay: as above
Summary of the method: as §1

MDA-MB-436 = assay: as above
Summary of the method: as §1

BT-474 = assay: as above
Summary of the method: as §1

MCF-10A [5] = assay: as above
Summary of the method: as §1

HCC1143 = assay: as above
Summary of the method: as §1

CAL-120 [6] = assay: as above
Summary of the method: as §1

CAL-85-1 = assay: as above
Summary of the method: as §1

SK-BR-3 = assay: as above
Summary of the method: as §1

MFM-223 = assay: as above
Summary of the method: as §1

| Compound | normalised response (MDA-MB-468 [1]) | normalised response (DU-4475) | normalised response (MCF-10A [2]) | normalised response (CAL-120 [3]) | normalised response (MDA-MB-468 [4]) | normalised response (HCC1937) | normalised response (CAL-51) | normalised response (HDQ-P1) | normalised response (BT-549) | normalised response (CAL-148) | normalised response (MDA-MB-453) | normalised response (Hs578T) | normalised response (MDA-MB-231) | normalised response (HCC1599) | normalised response (MDA-MB-436) | normalised response (BT-474) | normalised response (MCF-10A [5]) | normalised response (HCC1143) | normalised response (CAL-120 [6]) | normalised response (CAL-85-1) | normalised response (SK-BR-3) | normalised response (MFM-223) |
| --- | --- | --- | --- | --- | --- | --- | --- | --- | --- | --- | --- | --- | --- | --- | --- | --- | --- | --- | --- | --- | --- | --- |
| Cc1c(N)nc([C@H](CC(N)=O)NC[C@H](N)C(N)=O)nc1C(=O)N[C@H](C(=O)N[C@H](C)[C@@H](O)[C@H](C)C(=O)N[C@H](C(=O)NCCc1nc(-c2nc(C(=O)NCCC[S+](C)C)cs2)cs1)[C@@H](C)O)[C@@H](OC1OC(CO)C(O)C(O)C1OC1OC(CO)C(O)C(OC(N)=O)C1O)c1cnc[nH]1 (some centres undefined) [Bleomycin] (1000 nM) | 138% | 97.5% | 92.5% | 92.9% | 86.1% | 94.2% | 49% | 103% | 66.7% | 82.1% | 91% | 86.5% | 88.3% | 105% | 82.3% | 91.3% | 96% | 83.1% | 91.9% | 91.9% | 84.8% | 99.6% |
| Cc1c(N)nc([C@H](CC(N)=O)NC[C@H](N)C(N)=O)nc1C(=O)N[C@H](C(=O)N[C@H](C)[C@@H](O)[C@H](C)C(=O)N[C@H](C(=O)NCCc1nc(-c2nc(C(=O)NCCC[S+](C)C)cs2)cs1)[C@@H](C)O)[C@@H](OC1OC(CO)C(O)C(O)C1OC1OC(CO)C(O)C(OC(N)=O)C1O)c1cnc[nH]1 (some centres undefined) [Bleomycin] (10000 nM) | 201% | 92.1% | 112% | 99.4% |  |  |  |  |  |  |  |  |  |  |  |  |  |  |  |  |  |  |
| Cc1cc2c(F)c(Oc3ncnn4cc(OC[C@@H](C)O)c(C)c34)ccc2[nH]1 [Brivanib] (100 nM) | 100% | 104% | 107% | 104% | 108% | 97.4% | 80.6% | 104% | 94% | 105% | 97% | 98.8% | 107% | 126% | 110% | 107% | 111% | 107% | 109% | 97.1% | 103% | 107% |
| Cc1cc2c(F)c(Oc3ncnn4cc(OC[C@@H](C)O)c(C)c34)ccc2[nH]1 [Brivanib] (1000 nM) | 99.9% | 102% | 105% | 100% |  |  |  |  |  |  |  |  |  |  |  |  |  |  |  |  |  |  |
| CCCCCOC(=O)Nc1nc(=O)n([C@@H]2O[C@H](C)[C@@H](O)[C@H]2O)cc1F [Capecitabine] (1000 nM) |  | 99.2% | 64.8% | 102% | 101% | 94% | 112% | 96.2% | 104% | 98.6% | 111% | 107% | 98.2% | 104% | 98.7% | 103% | 97% | 103% | 107% | 92.2% | 105% | 102% |
| CCCCCOC(=O)Nc1nc(=O)n([C@@H]2O[C@H](C)[C@@H](O)[C@H]2O)cc1F [Capecitabine] (10000 nM) | 100% | 97.5% | 74.1% | 90.2% |  |  |  |  |  |  |  |  |  |  |  |  |  |  |  |  |  |  |
| CC(C)C[C@H](NC(=O)[C@H](CCc1ccccc1)NC(=O)CN1CCOCC1)C(=O)N[C@@H](Cc1ccccc1)C(=O)N[C@@H](CC(C)C)C(=O)[C@@]1(C)CO1 [Carfilzomib] (100 nM) | -95.8% | 86.1% | 69.7% | 11.9% | 0.79% | 4.85% | 2.57% | 0.29% | 1.4% | 0.66% | 12.2% | 0.88% | 0.22% | 52% | 1.46% | 0.61% | 43.6% | 8.24% | 2.73% | 0.78% | 3.27% | 4.43% |
| CC(C)C[C@H](NC(=O)[C@H](CCc1ccccc1)NC(=O)CN1CCOCC1)C(=O)N[C@@H](Cc1ccccc1)C(=O)N[C@@H](CC(C)C)C(=O)[C@@]1(C)CO1 [Carfilzomib] (1000 nM) | -84% | 87.3% | -56% | -0.18% |  |  |  |  |  |  |  |  |  |  |  |  |  |  |  |  |  |  |
| Nc1nc(Cl)nc2c1ncn2[C@@H]1O[C@H](CO)[C@@H](O)[C@@H]1F [Clofarabine] (1000 nM) | 145% | 103% | 110% | 103% | 43.7% | 89.9% | 26.9% | 79.4% | 35.7% | 58.5% | 127% | 91.9% | 91% | 61.7% | 22.9% | 78.7% | 68.1% | 44.1% | 75.3% | 47.4% | 42.7% | 103% |
| Nc1nc(Cl)nc2c1ncn2[C@@H]1O[C@H](CO)[C@@H](O)[C@@H]1F [Clofarabine] (10000 nM) | 73.1% | 89.1% | 110% | 105% |  |  |  |  |  |  |  |  |  |  |  |  |  |  |  |  |  |  |
| CCN(CC)CCOc1ccc(C(=C(Cl)c2ccccc2)c2ccccc2)cc1 [Clomifene] (10000 nM) | 93.8% | 53.4% | 60.3% |  |  |  |  |  |  |  |  |  |  |  |  |  |  |  |  |  |  |  |
| C[C@@H]1C[C@H]2[C@@H]3CCC4=CC(=O)C=C[C@]4(C)[C@@]3(F)[C@@H](O)C[C@]2(C)[C@@]1(O)C(=O)CO [Dexamethasone] (10000 nM) | 135% | 97.4% | 81.8% | 102% |  |  |  |  |  |  |  |  |  |  |  |  |  |  |  |  |  |  |
| CC(C)C(=O)Nc1ccc([N+](=O)[O-])c(C(F)(F)F)c1 [Flutamide] (10000 nM) | 124% | 98.6% | 106% | 98.1% |  |  |  |  |  |  |  |  |  |  |  |  |  |  |  |  |  |  |
| COc1cc2c(Oc3ccc(NC(=O)C4(C(=O)Nc5ccc(F)cc5)CC4)cc3F)ccnc2cc1OCCCN1CCOCC1 [Foretinib] (1000 nM) | 37.6% | 95.2% | 101% | 99.9% |  |  |  |  |  |  |  |  |  |  |  |  |  |  |  |  |  |  |
| NC(=O)NO [Hydroxyurea] (100000 nM) | 104% | 97.6% | 96.7% | 101% |  |  |  |  |  |  |  |  |  |  |  |  |  |  |  |  |  |  |
| O=NN(CCCl)C(=O)NC1CCCCC1 [Lomustine] (10000 nM) | 77.9% | 98.9% | 88.2% | 92.5% |  |  |  |  |  |  |  |  |  |  |  |  |  |  |  |  |  |  |
| O=C(O)CC[C@H]1CC[C@@](c2cc(F)ccc2F)(S(=O)(=O)c2ccc(Cl)cc2)CC1 [MK-0752] (1000 nM) | 106% | 104% | 114% | 102% |  |  |  |  |  |  |  |  |  |  |  |  |  |  |  |  |  |  |
| NC(=O)c1cccc2cn(-c3ccc([C@@H]4CCCNC4)cc3)nc12 [MK-4827] (10000 nM) | 116% | 89.2% | 94.8% | 97.3% |  |  |  |  |  |  |  |  |  |  |  |  |  |  |  |  |  |  |
| CO[C@H](C(=O)[C@@H](O)[C@@H](C)O)[C@@H]1Cc2cc3cc(O[C@H]4C[C@@H](O[C@@H]5C[C@@H](O)[C@H](O)[C@@H](C)O5)[C@H](O)[C@@H](C)O4)c(C)c(O)c3c(O)c2C(=O)[C@H]1O[C@H]1C[C@@H](O[C@@H]2C[C@@H](O)[C@@H](O[C@@H]3C[C@](C)(O)[C@H](O)[C@@H](C)O3)[C@@H](C)O2)[C@H](O)[C@@H](C)O1 [Plicamycin] (1000 nM) |  | 104% | 86.6% | 103% | 91% | 90% | 86.9% | 102% | 89.5% | 104% | 105% | 104% | 94.2% | 120% | 103% | 91% | 110% | 101% | 105% | 100% | 106% | 104% |
| CO[C@H](C(=O)[C@@H](O)[C@@H](C)O)[C@@H]1Cc2cc3cc(O[C@H]4C[C@@H](O[C@@H]5C[C@@H](O)[C@H](O)[C@@H](C)O5)[C@H](O)[C@@H](C)O4)c(C)c(O)c3c(O)c2C(=O)[C@H]1O[C@H]1C[C@@H](O[C@@H]2C[C@@H](O)[C@@H](O[C@@H]3C[C@](C)(O)[C@H](O)[C@@H](C)O3)[C@@H](C)O2)[C@H](O)[C@@H](C)O1 [Plicamycin] (10000 nM) | 54% | 87.9% | 9.61% | 71.9% |  |  |  |  |  |  |  |  |  |  |  |  |  |  |  |  |  |  |
| C[C@]12C=CC(=O)C=C1CC[C@@H]1[C@@H]2C(=O)C[C@@]2(C)[C@H]1CC[C@]2(O)C(=O)CO [Prednisone] (10000 nM) | 99.5% | 103% | 104% | -48.9% |  |  |  |  |  |  |  |  |  |  |  |  |  |  |  |  |  |  |
| CO[C@H]1C[C@@H]2CC[C@@H](C)[C@@](O)(O2)C(=O)C(=O)N2CCCC[C@H]2C(=O)O[C@H]([C@H](C)C[C@@H]2CC[C@@H](O)[C@H](OC)C2)CC(=O)[C@H](C)/C=C(\C)[C@@H](O)[C@@H](OC)C(=O)[C@H](C)C[C@H](C)/C=C/C=C/C=C/1C [Sirolimus] (100 nM) | 141% | 98.5% | 107% | 106% |  |  |  |  |  |  |  |  |  |  |  |  |  |  |  |  |  |  |
| CN1CCN(c2nc(C3=C(c4c[nH]c5ccccc45)C(=O)NC3=O)c3ccccc3n2)CC1 [Sotrastaurin] (10000 nM) | 194% | 100% | 104% | 94.2% |  |  |  |  |  |  |  |  |  |  |  |  |  |  |  |  |  |  |
| CC/C(=C(\c1ccccc1)c1ccc(OCCN(C)C)cc1)c1ccccc1 [Tamoxifen] (10000 nM) | 7.06% | 91.1% | 81.5% | 83.5% |  |  |  |  |  |  |  |  |  |  |  |  |  |  |  |  |  |  |
| Cn1nnc2c(C(N)=O)ncn2c1=O [Temozolomide] (10000 nM) | 103% | 98.2% | 93.2% | 98.5% |  |  |  |  |  |  |  |  |  |  |  |  |  |  |  |  |  |  |
| CC[C@@H]1C(=O)N(C)c2cnc(Nc3ccc(C(=O)N[C@H]4CC[C@H](N5CCN(CC6CC6)CC5)CC4)cc3OC)nc2N1C(C)C [Volasertib] (1000 nM) | 118% | 90.4% | 56.1% | 63.5% |  |  |  |  |  |  |  |  |  |  |  |  |  |  |  |  |  |  |
